ChEMBL document CHEMBL1201862, “PubChem BioAssay data set” (2004)
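A five-concentration, 48-hour dose response in 96-well plates underlies each endpoint, interpolated linearly between surrounding concentrations. At the GI50, growth is halved.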 Calls of active or inactive are those of the source. Cut-off read from the data, not from the text of the source: active = GI50 up to about 1.1 µM and inactive = higher.

Key:
Assay in all cases: NCI anticancer screen, dose series, 48 h
[1] = system: SK-MEL-2
[2] = system: Hs-578T
[3] = system: T47D
[4] = system: M14
[5] = system: A498
[6] = system: SK-MEL-5
[7] = system: SR
[8] = system: OVCAR-3
[9] = system: SF-295
[10] = system: SK-OV-3
[11] = system: KM12
[12] = system: PC-3
[13] = system: CAKI-1
[14] = system: BT-549
[15] = system: COLO 205
[16] = system: IGROV-1
[17] = system: CCRF-CEM
[18] = system: SF-268

Structure (SMILES)	GI50 [1]	GI50 [2]	GI50 [3]	GI50 [4]	GI50 [5]	GI50 [6]	GI50 [7]	GI50 [8]	GI50 [9]	GI50 [10]	GI50 [11]	GI50 [12]	GI50 [13]	GI50 [14]	GI50 [15]	GI50 [16]	GI50 [17]	GI50 [18]
O=C(Nc1nnc(-c2ccccc2)o1)C(SC(=S)N1CCOCC1)c1ccccc1 (stereo not given)	16.8 µM (inactive)	86.3 µM (inactive)	39.8 µM (inactive)	20.4 µM (inactive)	23.8 µM (inactive)	15.7 µM (inactive)	9.75 µM (inactive)	15 µM (inactive)	21.8 µM (inactive)	42.9 µM (inactive)	34.3 µM (inactive)	27 µM (inactive)	30.2 µM (inactive)	22.5 µM (inactive)	35.6 µM (inactive)	35.7 µM (inactive)	5.75 µM (inactive)	–
Cc1c(/N=N/c2ccccc2)c(-c2ccccc2)n(C2OC(CO)C(O)C(O)C2O)c(=S)c1C#N (stereo not given)	4.48 µM (inactive)	2.86 µM (inactive)	0.245 µM (active)	6.5 µM (inactive)	14.4 µM (inactive)	2.33 µM (inactive)	> 100 µM (inactive)	4.56 µM (inactive)	6.71 µM (inactive)	11.1 µM (inactive)	2.98 µM (inactive)	2.99 µM (inactive)	–	5.4 µM (inactive)	5.56 µM (inactive)	5.75 µM (inactive)	2.32 µM (inactive)	8.38 µM (inactive)
CC(=O)n1[nH]c(=O)n(-c2ccccc2)c1=O	> 100 µM (inactive)	> 100 µM (inactive)	> 100 µM (inactive)	> 100 µM (inactive)	–	> 100 µM (inactive)	> 100 µM (inactive)	> 100 µM (inactive)	> 100 µM (inactive)	> 100 µM (inactive)	> 100 µM (inactive)	> 100 µM (inactive)	> 100 µM (inactive)	> 100 µM (inactive)	> 100 µM (inactive)	> 100 µM (inactive)	> 100 µM (inactive)	> 100 µM (inactive)
COc1ccc(/N=N/c2c(C)c(C#N)c(=S)n(C3OC(CO)C(O)C(O)C3O)c2-c2ccccc2)cc1 (stereo not given)	33 µM (inactive)	21.5 µM (inactive)	27.1 µM (inactive)	24.9 µM (inactive)	20.9 µM (inactive)	11.5 µM (inactive)	32.1 µM (inactive)	24.7 µM (inactive)	30.8 µM (inactive)	27.2 µM (inactive)	43.5 µM (inactive)	17.1 µM (inactive)	24.2 µM (inactive)	38 µM (inactive)	47.5 µM (inactive)	30.4 µM (inactive)	20 µM (inactive)	44.9 µM (inactive)
COC1=C(OC)C(=O)C(Cc2c(C)nc3sccn23)=C(C)C1=O	16.6 µM (inactive)	19.3 µM (inactive)	18.2 µM (inactive)	17 µM (inactive)	14.9 µM (inactive)	4.68 µM (inactive)	14.5 µM (inactive)	15 µM (inactive)	15 µM (inactive)	13.7 µM (inactive)	15.2 µM (inactive)	16.3 µM (inactive)	17.9 µM (inactive)	16.1 µM (inactive)	12.6 µM (inactive)	22.4 µM (inactive)	3.56 µM (inactive)	18.8 µM (inactive)
O=C(CCc1ccc(O)cc1)NCCCNC(=O)CCc1ccc(O)cc1	> 100 µM (inactive)	> 100 µM (inactive)	> 100 µM (inactive)	> 100 µM (inactive)	> 100 µM (inactive)	> 100 µM (inactive)	> 100 µM (inactive)	> 100 µM (inactive)	> 100 µM (inactive)	> 100 µM (inactive)	> 100 µM (inactive)	> 100 µM (inactive)	> 100 µM (inactive)	> 100 µM (inactive)	> 100 µM (inactive)	> 100 µM (inactive)	> 100 µM (inactive)	> 100 µM (inactive)
